The record followed here is ChEMBL document CHEMBL1770126, “Molecular probes for the A2A adenosine receptor based on a pyrazolo[4,3-e][1,2,4]triazolo[1,5-c]pyrimidin-5-amine scaffold” (Bioorg Med Chem Lett, 2011).

Common to all, as to type: cell-based
The target in assay [1] is T1, Adenosine receptor A1 (Homo sapiens, UniProt P30542).
T1 sequence (P30542 whole entry): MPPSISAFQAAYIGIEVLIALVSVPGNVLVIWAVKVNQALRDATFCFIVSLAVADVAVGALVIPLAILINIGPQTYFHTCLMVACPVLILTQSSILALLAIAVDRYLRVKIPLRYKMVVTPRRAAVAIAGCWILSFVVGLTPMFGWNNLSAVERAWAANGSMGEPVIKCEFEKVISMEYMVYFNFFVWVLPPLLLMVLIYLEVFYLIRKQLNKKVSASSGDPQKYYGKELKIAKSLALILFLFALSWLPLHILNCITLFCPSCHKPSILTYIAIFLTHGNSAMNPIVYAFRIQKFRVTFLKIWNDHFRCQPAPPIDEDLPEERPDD
Briefly: Displacement of [3H]DPCPX from human recombinant adenosine A1 receptor expressed in CHO cells after 60 mins by liquid scintillation counting.

For assay [2], the target named is Adenosine receptor A2a (Homo sapiens, UniProt P29274). The experiment in a line: Displacement of [3H]CGS21680 from human recombinant adenosine A2A receptor expressed in HEK293 cells after 60 mins by liquid scintillation counting. On the technique in general: Displacement assays read how much labelled ligand stays bound in the presence of the test substance.
Assay [3] addresses T2, Adenosine receptor A3 (Homo sapiens, UniProt P0DMS8).
T2 sequence (P0DMS8 whole entry): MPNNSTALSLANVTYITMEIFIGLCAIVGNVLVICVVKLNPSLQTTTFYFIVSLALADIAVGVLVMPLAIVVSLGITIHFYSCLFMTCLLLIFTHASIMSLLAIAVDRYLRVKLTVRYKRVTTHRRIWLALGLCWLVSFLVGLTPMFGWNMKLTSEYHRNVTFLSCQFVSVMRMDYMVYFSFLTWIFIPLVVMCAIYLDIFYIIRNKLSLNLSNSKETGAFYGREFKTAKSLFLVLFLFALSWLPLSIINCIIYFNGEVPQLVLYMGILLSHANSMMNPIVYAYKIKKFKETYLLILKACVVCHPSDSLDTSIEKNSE
Briefly: Displacement of [125I]I-AB-MECA from human recombinant adenosine A3 receptor expressed in CHO cells after 60 mins by gamma scintillation counting.

Assay [4] deals with T3, Adenosine receptor A1 (Homo sapiens) (UniProt P30542).
T3 sequence (whole entry): T1 sequence (P30542 whole entry)
The experiment in a line: Displacement of [3H]DPCPX from human recombinant adenosine A1 receptor expressed in CHO cells at 10 uM after 60 mins by liquid scintillation counting.

For assay [5], the target named is T4, Adenosine receptor A3 (Homo sapiens) (UniProt P0DMS8).
T4 sequence (whole entry): T2 sequence (P0DMS8 whole entry)
Briefly: Displacement of [125I]I-AB-MECA from human recombinant adenosine A3 receptor expressed in CHO cells at 10 uM after 60 mins by gamma scintillation counting.

Chain of Adenosine receptor A2a (P29274 whole entry): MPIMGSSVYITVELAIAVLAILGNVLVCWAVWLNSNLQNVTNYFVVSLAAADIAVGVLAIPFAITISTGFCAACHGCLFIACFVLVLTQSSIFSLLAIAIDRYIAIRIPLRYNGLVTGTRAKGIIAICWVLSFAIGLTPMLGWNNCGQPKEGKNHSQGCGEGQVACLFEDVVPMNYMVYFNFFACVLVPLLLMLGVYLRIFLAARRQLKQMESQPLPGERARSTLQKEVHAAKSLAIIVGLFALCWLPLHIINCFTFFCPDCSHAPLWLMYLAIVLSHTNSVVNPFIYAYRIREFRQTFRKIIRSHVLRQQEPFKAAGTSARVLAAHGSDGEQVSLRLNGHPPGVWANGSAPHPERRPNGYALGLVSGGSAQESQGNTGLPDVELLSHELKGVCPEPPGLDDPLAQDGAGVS

For `CC(=O)NCCn1cc(CCCCC(=O)NCCNC(=O)COc2ccc(CCCn3ncc4c3nc(N)n3nc(-c5ccco5)nc43)cc2)nn1`, the Ki stood at 1700 nM in assay [1], 220 nM in assay [2] and 302 nM in assay [3].

For `N=c1ccc2c(-c3ccc(C(=O)NCCNC(=O)COc4ccc(CCCn5ncc6c5nc(N)n5nc(-c7ccco7)nc65)cc4)cc3C(=O)O)c3ccc(N)c(S(=O)(=O)O)c3oc-2c1S(=O)(=O)O`, the inhibition constant (Ki) in assay [2] is 111 nM. The inhibition amounted to 20% in assay [4] and 4% in assay [5].

As for `NCCNC(=O)COc1ccc(CCCn2ncc3c2nc(N)n2nc(-c4ccco4)nc32)cc1`, the figures for the Ki in assay [1], in assay [2] and in assay [3] were 1270 nM, 6.8 nM and 3970 nM, respectively.

Turning to `Nc1nc2c(cnn2CCCc2ccc(O)cc2)c2nc(-c3ccco3)nn12`, the Ki in assay [1] worked out at 4440 nM.

Turning to `CN(C)c1ccc2c(-c3ccc(C(=O)NCCNC(=O)COc4ccc(CCCn5ncc6c5nc(N)n5nc(-c7ccco7)nc65)cc4)cc3C(=O)[O-])c3ccc(=[N+](C)C)cc-3oc2c1`, the Ki in assay [2] amounted to 357 nM. Further, the inhibition in assay [4] is 7%; in assay [5] it was 24%.

Turning to `COc1ccc(CCCn2ncc3c2nc(N)n2nc(-c4ccco4)nc32)cc1`, in assay [4], the inhibition came out at 35%.

With `NCCNCCNC(=O)COc1ccc(CCCn2ncc3c2nc(N)n2nc(-c4ccco4)nc32)cc1`, the results for the Ki in assay [2] and in assay [3] were 10.7 nM and 3290 nM, respectively. The inhibition in assay [4] came out at 20%.

Consider `C#CCCCCC(=O)NCCNC(=O)COc1ccc(CCCn2ncc3c2nc(N)n2nc(-c4ccco4)nc32)cc1`, for which the Ki in assay [1] was 1100 nM; in assay [2], 75.4 nM; in assay [3], 1280 nM.

As to `Nc1nc2c(cnn2CCCc2ccc(OCCCF)cc2)c2nc(-c3ccco3)nn12`, the Ki in assay [1] was 1000 nM; in assay [2], 53.6 nM; in assay [3] it was 1320 nM.

With `Nc1nc2c(cnn2CCCc2ccc(OCC(=O)NCCNCCNC(=O)CCCCCNC(=O)COc3ccc(/C=C/C4=[N+]5C(=Cc6ccc(-c7ccc[nH]7)n6[B-]5(F)F)C=C4)cc3)cc2)c2nc(-c3ccco3)nn12`, in assay [2], the Ki was determined as 15.1 nM. The inhibition in assay [5] was 28%.

For `Nc1nc2c(cnn2CCCc2ccc(OCC(=O)O)cc2)c2nc(-c3ccco3)nn12`, the Ki in assay [1] came out at 1700 nM; in assay [2], 10.2 nM. The inhibition in assay [5] was determined as 29%.

On to `COC(=O)COc1ccc(CCCn2ncc3c2nc(N)n2nc(-c4ccco4)nc32)cc1`, for which the figures for the Ki in assay [1] and in assay [2] were 4840 nM and 96 nM, respectively. The inhibition in assay [5] was found to be 50%.

The Ki is a dissociation constant, usually derived from enzyme kinetics or from competition with a known ligand. For orientation: inhibition means the change of the read-out against control, counted positive when it falls.
